Assay results from patent US10072001B2, “Tank-binding kinase inhibitor compounds” (Gilead Sciences, Inc., priority 2014, dated 2018).

What was measured:
TBK1 = TBK1 (Homo sapiens (Human), UniProt Q9UHD2); assay: TR-FRET kinase assay, TBK1; conditions: read-out: TBK1-IC50; full length recombinant TBK1 2.5 nM, 2x Km ATP, 1 μM peptide, 240 min at 25° C.; geometric mean of minimum four determinations
Chain of TBK1 (Q9UHD2 whole entry): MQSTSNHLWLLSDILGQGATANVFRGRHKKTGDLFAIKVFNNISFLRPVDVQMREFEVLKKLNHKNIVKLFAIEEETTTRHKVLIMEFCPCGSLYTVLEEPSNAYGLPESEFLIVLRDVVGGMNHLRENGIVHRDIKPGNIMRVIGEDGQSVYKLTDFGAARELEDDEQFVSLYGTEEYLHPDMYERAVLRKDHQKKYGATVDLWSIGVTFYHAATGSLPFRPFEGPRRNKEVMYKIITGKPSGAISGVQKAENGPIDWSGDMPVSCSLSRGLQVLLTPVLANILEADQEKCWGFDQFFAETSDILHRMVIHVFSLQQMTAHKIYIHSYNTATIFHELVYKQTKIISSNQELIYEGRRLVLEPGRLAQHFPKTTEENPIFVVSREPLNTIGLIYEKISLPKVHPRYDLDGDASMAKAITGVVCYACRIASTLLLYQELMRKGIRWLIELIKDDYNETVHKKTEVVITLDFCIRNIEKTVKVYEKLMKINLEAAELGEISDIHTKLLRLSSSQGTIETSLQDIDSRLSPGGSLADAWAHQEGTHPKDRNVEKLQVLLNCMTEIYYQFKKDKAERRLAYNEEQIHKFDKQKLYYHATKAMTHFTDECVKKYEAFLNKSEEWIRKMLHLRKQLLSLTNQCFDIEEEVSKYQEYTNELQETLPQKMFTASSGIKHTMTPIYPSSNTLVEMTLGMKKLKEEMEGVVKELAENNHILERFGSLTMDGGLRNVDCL
Description: Enzymatic activity of IKKε and TBK1 was measured using a homogeneous time resolved fluorescence resonance energy transfer (TR-FRET) assay that monitors enzyme dependent phosphorylation of a biotinylated serine/threonine peptide substrate. […] TBK1 and IKKs were expressed and purified as full length recombinant proteins. Detection reagents for the assay were purchased from Cisbio. […] After an assay reaction time of 240 minutes at 25° C., reactions were terminated with EDTA.
Amount of phosphorylated peptide was determined by the addition of 125 nM streptavidin XL665 and europium cryptate labeled anti-phospho monoclonal antibody and the resulting TR-FRET signal was recorded on an Envision plate reader (Ex: 340 nm; Em: 615/665 nm; 100 μs delay and 200 μs read window). […] All IC50 values represent geometric mean values of a minimum of four determinations.

IKKε = IKKε (Homo sapiens (Human), UniProt Q14164); assay: TR-FRET kinase assay, IKKε; assay type: biochemical; conditions: full length recombinant IKKε 0.3 nM, 2x Km ATP, 1 μM peptide, 240 min at 25° C.; geometric mean of minimum four determinations
Chain of IKKε (Q14164 whole entry): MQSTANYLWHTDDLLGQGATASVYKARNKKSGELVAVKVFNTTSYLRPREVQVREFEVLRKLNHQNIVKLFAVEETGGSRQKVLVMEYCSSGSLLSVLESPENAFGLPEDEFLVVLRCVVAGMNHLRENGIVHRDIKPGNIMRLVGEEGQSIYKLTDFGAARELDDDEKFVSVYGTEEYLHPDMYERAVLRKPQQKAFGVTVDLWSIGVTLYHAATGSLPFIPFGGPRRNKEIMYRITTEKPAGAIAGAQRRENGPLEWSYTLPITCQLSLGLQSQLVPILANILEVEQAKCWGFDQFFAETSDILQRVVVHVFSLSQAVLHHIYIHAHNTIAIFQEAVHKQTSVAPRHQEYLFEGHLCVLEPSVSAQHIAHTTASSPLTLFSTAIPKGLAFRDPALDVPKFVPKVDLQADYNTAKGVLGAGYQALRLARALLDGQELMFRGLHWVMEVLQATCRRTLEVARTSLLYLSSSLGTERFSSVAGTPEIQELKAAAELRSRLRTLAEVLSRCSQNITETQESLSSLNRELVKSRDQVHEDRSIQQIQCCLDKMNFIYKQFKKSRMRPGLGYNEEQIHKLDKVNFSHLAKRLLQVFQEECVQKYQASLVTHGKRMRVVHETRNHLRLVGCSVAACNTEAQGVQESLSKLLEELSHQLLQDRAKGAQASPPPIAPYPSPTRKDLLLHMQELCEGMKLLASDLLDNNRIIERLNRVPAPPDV
Description: Biological Assay for TBK1 and IKKs:

`N#Cc1cc(-c2ncnc3[nH]c(-c4ccc(N5CCOCC5)cc4)nc23)ccc1OC1CCN(C=O)CC1` [Example 250, 2-((1-formylpiperidin-4-yl)oxy)-5-(8-(4-morpholinophenyl)-9H-purin-6-yl)benzonitrile] was tested, and the IC50 (TBK1) was 2.25 nM and the IC50 (IKKε) was 9.86 nM.
With `N#Cc1cc(-c2ncnc3[nH]c(-c4ccc(C(=O)N5CCCC5)cc4)cc23)ccc1OC1CCN(C(=O)CO)CC1` [Example 162, 2-((1-(2-Hydroxyacetyl)piperidin-4-yl)oxy)-5-(6-(4-(pyrrolidine-1-carbonyl)phenyl)-7H-pyrrolo[2,3-d]pyrimidin-4-yl)benzonitrile] the IC50 (TBK1) was 1.48 nM and the IC50 (IKKε) was 2.68 nM.
`CN1CCN(C(=O)c2cc3c(-c4ccc(OC5CCOCC5)c(C#N)c4)ccnc3[nH]2)CC1` [Example 118, 5-(2-(4-methylpiperazine-1-carbonyl)-1H-pyrrolo[2,3-b]pyridin-4-yl)-2-((tetrahydro-2H-pyran-4-yl)oxy)benzonitrile] gave an IC50 (TBK1) of 1000 nM and an IC50 (IKKε) of 291 nM.
In the case of `N#Cc1cc(-c2ncnc3[nH]c(-c4ccc(OCCN5CCCC5)cc4)cc23)ccc1N1CC(O)C1` [Example 227, 2-(3-hydroxyazetidin-1-yl)-5-(6-(4-(2-(pyrrolidin-1-yl)ethoxy)phenyl)-7H-pyrrolo[2,3-d]pyrimidin-4-yl)benzonitrile], the IC50 (TBK1) is reported as 42.4 nM and the IC50 (IKKε) is reported as 70.2 nM.
`N#Cc1cc(-c2ncnc3[nH]c(-c4ccc(C5CCN(CC(F)(F)F)CC5)cc4)nc23)ccc1OC1CCN(C=O)CC1` [Example 259, 2-((1-formylpiperidin-4-yl)oxy)-5-(8-(4-(1-(2,2,2-trifluoroethyl)piperidin-4-yl)phenyl)-9H-purin-6-yl)benzonitrile] gave an IC50 (TBK1) of 12.2 nM and an IC50 (IKKε) of 45.5 nM.
In the case of `COc1ccc(-c2cc3c(-c4ccc(OC5CCNCC5)c(C#N)c4)ncnc3[nH]2)cc1` [Example 123, 5-(6-(4-methoxyphenyl)-7H-pyrrolo[2,3-d]pyrimidin-4-yl)-2-(piperidin-4-yloxy)benzonitrile], the IC50 (TBK1) is reported as 22.4 nM and the IC50 (IKKε) is reported as 65.8 nM.
Work on `N#Cc1cc(-c2ccnc3[nH]c(C(=O)N4CCOCC4)cc23)ccc1OC1CCOCC1` [Example 116, 5-(2-(morpholine-4-carbonyl)-1H-pyrrolo[2,3-b]pyridin-4-yl)-2-((tetrahydro-2H-pyran-4-yl)oxy)benzonitrile] yielded an IC50 (TBK1) of 1000 nM and an IC50 (IKKε) of 667 nM.
In the case of `N#Cc1cc(-c2ncnc3[nH]c(-c4ccc(CN5CCOCC5)cc4)nc23)ccc1OC1CCOCC1` [Example 252, 5-(8-(4-(morpholinomethyl)phenyl)-9H-purin-6-yl)-2-((tetrahydro-2H-pyran-4-yl)oxy)benzonitrile], the IC50 (TBK1) is reported as 3.34 nM and the IC50 (IKKε) is reported as 4.85 nM.
`N#Cc1cc(-c2ccnc3[nH]c(-c4ccc(N5CCOCC5)cc4)cc23)ccc1O[C@@H]1CCNC1` [Example 14, (R)-5-(2-(4-morpholinophenyl)-1H-pyrrolo[2,3-b]pyridin-4-yl)-2-(pyrrolidin-3-yloxy)benzonitrile] was tested, and the IC50 (TBK1) was 6.86 nM and the IC50 (IKKε) was 20.8 nM.
In the case of `N#Cc1cc(-c2ncnc3[nH]c(-c4cccc(C(N)=O)c4)cc23)ccc1OC1CCOCC1` [Example 171, 3-(4-(3-cyano-4-((tetrahydro-2H-pyran-4-yl)oxy)phenyl)-7H-pyrrolo[2,3-d]pyrimidin-6-yl)benzamide], the IC50 (TBK1) is reported as 6.4 nM and the IC50 (IKKε) is reported as 10.6 nM.
`N#Cc1cc(-c2ncnc3[nH]c(-c4cccc(N5CCOCC5)c4)cc23)ccc1OC1CCOCC1` [Example 103, 5-(6-(3-morpholinophenyl)-7H-pyrrolo[2,3-d]pyrimidin-4-yl)-2-((tetrahydro-2H-pyran-4-yl)oxy)benzonitrile] showed an IC50 (TBK1) of 2.63 nM and an IC50 (IKKε) of 18.9 nM.
`N#Cc1cc(-c2ccnc3[nH]c(C4=CCNC4)cc23)ccc1OC1CCOCC1` [Example 37, 5-(2-(2,5-dihydro-1H-pyrrol-3-yl)-1H-pyrrolo[2,3-b]pyridin-4-yl)-2-((tetrahydro-2H-pyran-4-yl)oxy)benzonitrile] was tested, and the IC50 (TBK1) was 13.4 nM and the IC50 (IKKε) was 46.3 nM.
With `N#Cc1cc(-c2ncnc3[nH]c(-c4ccc(OCCN5CCCC5)cc4)nc23)ccc1OC1CCN(C(=O)CO)CC1` [Example 233, 2-((1-(2-hydroxyacetyl)piperidin-4-yl)oxy)-5-(8-(4-(2-(pyrrolidin-1-yl)ethoxy)phenyl)-9H-purin-6-yl)benzonitrile] the IC50 (TBK1) was 3.33 nM and the IC50 (IKKε) was 2.04 nM.
With `N#Cc1cc(-c2ncnc3[nH]c(-c4ccc(N5CCOCC5)cc4)nc23)ccc1O[C@@H]1CCN(C(=O)CO)C1` [Example 208, (R)-2-((1-(2-hydroxyacetyl)pyrrolidin-3-yl)oxy)-5-(8-(4-morpholinophenyl)-9H-purin-6-yl)benzonitrile] the IC50 (TBK1) was 1.68 nM and the IC50 (IKKε) was 7.58 nM.
`N#Cc1cc(-c2ccnc3[nH]c(-c4ccc(N5CCOCC5)cc4)cc23)ccc1F` [Example 58, 2-fluoro-5-(2-(4-morpholinophenyl)-1H-pyrrolo[2,3-b]pyridin-4-yl)benzonitrile] was tested, and the IC50 (TBK1) was 6.06 nM and the IC50 (IKKε) was greater than 1000 nM.
`N#Cc1cc(-c2ccnc3[nH]c(-c4ccc(N5CCOCC5)cc4)cc23)ccc1CN1CCOCC1` [Example 70, 2-(morpholinomethyl)-5-(2-(4-morpholinophenyl)-1H-pyrrolo[2,3-b]pyridin-4-yl)benzonitrile] gave an IC50 (TBK1) of 10.5 nM and an IC50 (IKKε) of 132 nM.
Work on `N#Cc1cc(-c2ccnc3[nH]c(-c4ccc(N5CCOCC5)cc4)cc23)ccc1NC(=O)C1CC1` [Example 32, N-(2-cyano-4-(2-(4-morpholinophenyl)-1H-pyrrolo[2,3-b]pyridin-4-yl)phenyl)cyclopropanecarboxamide] yielded an IC50 (TBK1) of 9.34 nM and an IC50 (IKKε) greater than 1000 nM.
For `N#Cc1cc(-c2ccnc3[nH]c(-c4cccc(N5CCOCC5)c4)cc23)ccc1OC1CCOCC1` [Example 78, 5-(2-(3-morpholinophenyl)-1H-pyrrolo[2,3-b]pyridin-4-yl)-2-((tetrahydro-2H-pyran-4-yl)oxy)benzonitrile], the IC50 (TBK1) was 25.5 nM and the IC50 (IKKε) was 40.1 nM.
For `N#Cc1cc(-c2ncnc3[nH]c(-c4ccc(N5CCOCC5)cc4)nc23)ccc1OC1CCN(C(=O)C(F)F)CC1` [Example 248, 2-((1-(2,2-difluoroacetyl)piperidin-4-yl)oxy)-5-(8-(4-morpholinophenyl)-9H-purin-6-yl)benzonitrile], the IC50 (TBK1) was 3.63 nM and the IC50 (IKKε) was 9.82 nM.
For `CC(C)(O)c1ccc(-c2nc3c(-c4ccc(OC5CCOCC5)c(C#N)c4)ncnc3[nH]2)cc1` [Example 228, 5-(8-(4-(2-hydroxypropan-2-yl)phenyl)-9H-purin-6-yl)-2-((tetrahydro-2H-pyran-4-yl)oxy)benzonitrile], the IC50 (TBK1) was 1.62 nM and the IC50 (IKKε) was 14.5 nM.
Compound `COc1ccc(-c2nc3c(-c4ccc(OC5CCOCC5)c(C#N)c4)ncnc3[nH]2)cc1` [Example 146, 5-(8-(4-methoxyphenyl)-9H-purin-6-yl)-2-((tetrahydro-2H-pyran-4-yl)oxy)benzonitrile] has an IC50 (TBK1) of 4.71 nM and an IC50 (IKKε) of 23.4 nM.
`CC(C)(C)OC(=O)N1CC[C@@H](Oc2ccc(-c3ccnc4[nH]c(-c5ccc(N6CCOCC6)cc5)nc34)cc2C#N)C1` [Example 302, (R)-tert-butyl 3-(2-cyano-4-(2-(4-morpholinophenyl)-3H-imidazo[4,5-b]pyridin-7-yl)phenoxy)pyrrolidine-1-carboxylate] showed an IC50 (TBK1) greater than 1000 nM and an IC50 (IKKε) greater than 1000 nM.
Compound `N#Cc1cc(-c2ccnc3[nH]c(-c4ccc(N5CCOCC5)cc4)cc23)ccc1N` [Example 28, 2-amino-5-(2-(4-morpholinophenyl)-1H-pyrrolo[2,3-b]pyridin-4-yl)benzonitrile] has an IC50 (TBK1) of 11.7 nM and an IC50 (IKKε) of 119 nM.
In the case of `N#Cc1cc(-c2ncnc3[nH]c(-c4ccc(N5CCOCC5)cc4)nc23)ccc1O[C@@H]1CCNC1` [Example 207, (R)-5-(8-(4-morpholinophenyl)-9H-purin-6-yl)-2-(pyrrolidin-3-yloxy)benzonitrile], the IC50 (TBK1) is reported as 15.8 nM and the IC50 (IKKε) is reported as 113 nM.
`C[C@H](O)C(=O)N1CCC(Oc2ccc(-c3ncnc4[nH]c(-c5ccc(N6CCOCC6)cc5)nc34)cc2C#N)CC1` [Example 234, (S)-2-((1-(2-hydroxypropanoyl)piperidin-4-yl)oxy)-5-(8-(4-morpholinophenyl)-9H-purin-6-yl)benzonitrile] was tested, and the IC50 (TBK1) was 2.34 nM and the IC50 (IKKε) was 8.64 nM.
`N#Cc1cc(-c2ncnc3[nH]c(-c4ccc(N5CCOCC5)cc4)cc23)ccc1CN1CCCC1=O` [Example 115, 5-(6-(4-morpholinophenyl)-7H-pyrrolo[2,3-d]pyrimidin-4-yl)-2-((2-oxopyrrolidin-1-yl)methyl)benzonitrile] showed an IC50 (TBK1) of 45.7 nM and an IC50 (IKKε) of 1000 nM.
`CC(C)Oc1ccc(-c2ccnc3[nH]c(-c4ccc(N5CCOCC5)cc4)cc23)cc1C#N` [Example 71, 2-isopropoxy-5-(2-(4-morpholinophenyl)-1H-pyrrolo[2,3-b]pyridin-4-yl)benzonitrile] was tested, and the IC50 (TBK1) was 59.3 nM and the IC50 (IKKε) was 358 nM.
`CC(C)(O)c1ccc(-c2cc3c(-c4ccc(OC5CCOCC5)c(C#N)c4)ncnc3[nH]2)cc1` [Example 109, 5-(6-(4-(2-hydroxypropan-2-yl)phenyl)-7H-pyrrolo[2,3-d]pyrimidin-4-yl)-2-((tetrahydro-2H-pyran-4-yl)oxy)benzonitrile] showed an IC50 (TBK1) of 0.821 nM and an IC50 (IKKε) of 4.99 nM.
Work on `C[C@@H](O)C(=O)N1CC[C@@H](Oc2ccc(-c3ncnc4[nH]c(-c5ccc(N6CCOCC6)cc5)nc34)cc2C#N)C1` [Example 209, 2-(((R)-1-((R)-2-hydroxypropanoyl)pyrrolidin-3-yl)oxy)-5-(8-(4-morpholinophenyl)-9H-purin-6-yl)benzonitrile] yielded an IC50 (TBK1) of 13.1 nM and an IC50 (IKKε) of 58.7 nM.
Compound `N#Cc1cc(-c2ncnc3[nH]c(-c4ccc(C(=O)NC5COC5)cc4)cc23)ccc1OC1CCN(C(=O)CO)CC1` [Example 163, 4-(4-(3-Cyano-4-((1-(2-hydroxyacetyl)piperidin-4-yl)oxy)phenyl)-7H-pyrrolo[2,3-d]pyrimidin-6-yl)-N-(oxetan-3-yl)benzamide] has an IC50 (TBK1) of 1.78 nM and an IC50 (IKKε) of 1.8 nM.
`COc1cc(-c2cc3c(-c4ccc(OC5CCOCC5)c(C#N)c4)c(F)cnc3[nH]2)ccc1N1CCOCC1` [Example 172, 5-(5-fluoro-2-(3-methoxy-4-morpholinophenyl)-1H-pyrrolo[2,3-b]pyridin-4-yl)-2-((tetrahydro-2H-pyran-4-yl)oxy)benzonitrile] was tested, and the IC50 (TBK1) was 30.2 nM and the IC50 (IKKε) was 260 nM.
